# Results published in paper PMC5736936, “Xylopine Induces Oxidative Stress and Causes G2/M Phase Arrest, Triggering Caspase-Mediated Apoptosis by p53-Independent Pathway in HCT116 Cells” (Oxidative Medicine and Cellular Longevity, 2017).
# Assays:
# [1] = system: MRC5 (human lung fibroblast); test: Cytotoxic activity, alamarBlue assay, 72 h (noncancer cells); assay type: cell-based; settings: Homo sapiens
# From the text: (§1) MCF7 (human breast carcinoma), HCT116 (human colon carcinoma), HepG2 (human hepatocellular carcinoma), SCC-9 (human oral squamous cell carcinoma), HSC-3 (human oral squamous cell carcinoma), HL-60 (human promyelocytic leukemia), K-562 (human chronic myelogenous leukemia), B16-F10 (murine melanoma), MRC-5 (human lung fibroblast), WT SV40 MEF (wild-type immortalized mouse embryonic fibroblast), and BAD KO SV40 MEF (BAD gene knockout immortalized mouse embryonic fibroblast) cell lines were obtained from the American Type Culture Collection (ATCC, Manassas, VA, USA). Cells were cultured in complete medium with appropriate supplements as recommended by ATCC. All cell lines were tested for mycoplasma using the Mycoplasma Stain Kit (Sigma-Aldrich) to validate the use of cells free from contamination. Primary cell culture of peripheral blood mononuclear cells (PBMC) was obtained by standard Ficoll density protocol. The Research Ethics Committee of the Oswaldo Cruz Foundation (Salvador, BA, Brazil) approved the experimental protocol (number 031019/2013). Cell viability was examined using trypan blue exclusion assay for all experiments.
# (§2) Cell viability was quantified using the alamarBlue assay according to Ahmed et al.. Cells were inserted in 96-well plates for all experiments (7 × 10^4 cells/mL for adherent cells or 3 × 10^5 cells/mL for suspended cells in 100 μL of medium). After 24 h, xylopine was dissolved in dimethyl sulfoxide (DMSO) and added to each well and incubated for 72 h. […] Four (for cell lines) or 24 h (for PBMCs) before the end of incubation, 20 μL of a stock solution (0.312 mg/mL) of the alamarBlue (resazurin, Sigma-Aldrich Co., Saint Louis, MO, USA) was added to each well. Absorbance at 570 nm and 600 nm was measured using the SpectraMax 190 Microplate Reader (Molecular Devices, Sunnyvale, CA, USA), and the drug effect was quantified as the percentage of control absorbance.
# [2] = system: PBMC (human peripheral blood mononuclear cells); test: as above; assay type: cell-based; settings: Homo sapiens
# From the text: as §1, §2
# [3] = system: WT SV40 MEF (wild-type immortalized mouse embryonic fibroblast); test: Cytotoxic activity in wild-type fibroblasts; assay type: cell-based; settings: WT SV40 MEF cell line
# From the text: as §1, §2
# [4] = system: HCT116 cells; test: Cell viability by trypan blue exclusion assay; assay type: cell-based, human; settings: for reduction of the number of viable cells: HCT116, trypan blue
# From the text: as §1
# [5] = system: HCT116 cells; test: Annexin V-FITC/PI staining assay (flow cytometry), with protection assays; assay type: cell-based, human
# Procedure: For apoptosis detection, we used the FITC Annexin V Apoptosis Detection Kit I (BD Biosciences), and the analysis was performed according to the manufacturer's instructions. The cell fluorescence was determined by flow cytometry as described above. The protection assays using a caspase-3 inhibitor (Z-DEVD-FMK, BD Biosciences), a p53 inhibitor (cyclic pifithrin-α, Cayman Chemical, Ann Arbor, MI, USA), and an antioxidant N-acetyl-L-cysteine (NAC, Sigma-Aldrich Co.) were performed. In brief, the cells were pretreated for 2 h with 50 μM Z-DEVD-FMK and 10 μM cyclic pifithrin-α and for 1 h with 5 mM NAC, followed by incubation with 14 μM xylopine for 48 h. The cells were then trypsinized and the FITC Annexin V Apoptosis Detection assay was conducted as described above.
# [6] = system: HCT116 cells; test: Mitochondrial transmembrane potential (rhodamine 123); assay type: cell-based, human; settings: HCT116, rhodamine 123, 24 h, p < 0.05
# Procedure: Mitochondrial transmembrane potential was determined by the retention of the dye rhodamine 123 [9]. Cells were incubated with rhodamine 123 (5 μg/mL, Sigma-Aldrich Co.) at room temperature for 15 min in the dark and washed with saline. The cells were then incubated again in saline for 30 min in the dark and cell fluorescence was determined by flow cytometry as described above.
# [7] = system: caspase-3 in HCT116 cells; test: Caspase-3 activation assay (colorimetric, Ac-DEVD-pNA); assay type: cell-based, human; settings: HCT116, 48 h, p < 0.05
# Procedure: A Caspase-3 Colorimetric Assay Kit (Sigma-Aldrich Co.) was used to investigate caspase-3 activation in xylopine-treated HCT116 cells based on the cleavage of Ac-DEVD-pNA and the analysis was performed according to the manufacturer's instructions.
# [8] = system: HCT116 cells; test: Cellular reactive oxygen species levels (DCF-DA); assay type: cell-based, human
# Procedure: The levels of reactive oxygen species (ROS) were measured according to previously described using 2′,7′-dichlorofluorescin diacetate (DCF-DA) (Sigma-Aldrich Co.). In brief, cells were treated with xylopine for 1 and 3 h. Then, the cells were collected, washed with saline, and resuspended in FACS tubes with saline containing 5 μM DCF-DA for 30 min. Finally, the cells were washed with saline and the cell fluorescence was determined by flow cytometry as described above. The protection assay using the antioxidant NAC and catalase (Sigma-Aldrich Co.) was performed. In brief, the cells were pretreated for 1 h with 5 mM NAC or 2000 UI catalase and then incubated with xylopine in the established concentration for 1 h. The cells were then trypsinized and the ROS levels were measured as described above.
# [9] = system: HCT116 cells; test: Cellular GSH level; assay type: cell-based, human; settings: HCT116, 1 h
# Procedure: A quantification kit for reduced glutathione (L-γ-glutamyl-L-cysteinyl-glycine, GSH, Sigma-Aldrich Co.) was used to investigate cellular GSH level in xylopine-treated HCT116 cells and the analysis was performed according to the manufacturer's instructions.
# [10] = system: HCT116 cells; test: Morphological analysis (May-Grünwald-Giemsa); assay type: cell-based, human; settings: 24 and 48 h, DOX 1 μM, OXA 2.5 μM
# Procedure: To evaluate alterations in morphology, cells were cultured under coverslip and stained with May-Grünwald-Giemsa. Morphological changes were examined by light microscopy using Image-Pro software.
# [11] = system: human hepatocellular carcinoma HepG2 cells; design: method as in PMID 27399666; settings: cited from earlier work
structure (smiles),measurement,setting,value
"COc1ccc2c(c1)C[C@@H]1NCCc3cc4c(c-2c31)OCO4 [XYL, xylopine]",IC50,[1],24.1 µM
same,IC50,[2],18.3 µM
same,IC50,[3],8 µM
same,reduction of the number of viable cells,"[4]; 3.5 μM, 24 h",50.2%
same,reduction of the number of viable cells,"[4]; 3.5 μM, 48 h",79.9%
same,reduction of the number of viable cells,"[4]; 7 μM, 24 h",64.4%
same,reduction of the number of viable cells,"[4]; 7 μM, 48 h",84.6%
same,reduction of the number of viable cells,"[4]; 14 μM, 24 h",71.8%
same,reduction of the number of viable cells,"[4]; 14 μM, 48 h",89.4%
same,number of nonviable cells,"[4]; HCT116, trypan blue, 3.5, 7, 14 μM, 24 and 48 h",No significant increase
same,xylopine-induced apoptosis on cotreatment with caspase-3 inhibitor (Z-DEVD-FMK),"[5]; HCT116, 50 μM Z-DEVD-FMK 2 h, then 14 μM xylopine 48 h",prevented
same,xylopine-induced increase of cell death by apoptosis on cotreatment with NAC,"[5]; HCT116, 5 mM NAC 1 h, then 14 μM xylopine 48 h",prevented
same,early and late apoptosis,"[5]; HCT116, annexin V/PI, 24 and 48 h, p < 0.05",significantly increased
same,necrotic cells,"[5]; HCT116, annexin V/PI, 48 h, p < 0.05",significant increase
same,mitochondrial depolarization,[6],induced mitochondrial depolarization
same,caspase-3 activation,[7],increased caspase-3 activation
same,xylopine-induced increase in intracellular ROS level on cotreatment with NAC,"[8]; HCT116, 5 mM NAC 1 h, then 14 μM xylopine 1 h",prevented
same,xylopine-induced increase in intracellular ROS levels on cotreatment with catalase,"[8]; HCT116, 2000 UI catalase 1 h, then 14 μM xylopine 1 h",prevented
same,ROS levels,"[8]; HCT116, DCF-DA, 1 and 3 h",caused an increase in the ROS levels
same,GSH levels,[9],decreased
same,cell morphology,[10],"reduction in the cell volume, chromatin condensation, and fragmentation of the nuclei"
same,cell cycle arrest and apoptosis,[11],causes G2/M cell cycle arrest and apoptosis
